# Tests used:
# [1] = test system: TF1 JAK2 V617F STAT3 reporter; assay: Cellular TF1 STAT3 assay (luciferase reporter), JAK2 V617F; assay type: cell-based; conditions: Homo sapiens, TF-1, TF1 cells, JAK2 V617F, read-out: Cell PD-TF1 JAK2 V617F STAT3 (IC50)
# Outline: (§1)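 Measured in TF1 cells with mutant JAK2 V617F and STAT-responsive luciferase: 18-20 h compound exposure at 37 °C, then ONE-glo luminescence.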
# [2] = target: T1, JAK2 JH2 WT (V536-D812) [W659A, W777A, F794H solubilizing mutations] (Homo sapiens, UniProt O60674, F794H/W659A/W777A); assay: Surface Plasmon Resonance (SPR) binding assay, JAK2 JH2 domain
# T1 construct: **JAK2 JH2 WT (V536-D812) [W659A, W777A, F794H solubilizing mutations]; C-thrombin-avi-His6; thrombin cleavage site (C); His6 (C); purchased Biortus
# T1 sequence (O60674 536-812 W659A/W777A/F794H): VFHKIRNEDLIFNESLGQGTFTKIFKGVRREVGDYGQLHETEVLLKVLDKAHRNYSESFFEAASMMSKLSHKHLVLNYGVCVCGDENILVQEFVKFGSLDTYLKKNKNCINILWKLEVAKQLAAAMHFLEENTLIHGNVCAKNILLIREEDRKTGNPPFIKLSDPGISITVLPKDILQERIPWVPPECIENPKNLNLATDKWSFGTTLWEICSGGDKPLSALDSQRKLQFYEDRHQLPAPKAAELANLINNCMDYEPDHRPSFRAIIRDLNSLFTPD
# Outline: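 Kinetics came from 1:1 fits of single-cycle runs at 20 °C: four 3-fold dilutions from 5 uM for JH1 or 500 nM for JH2, 60 s association, and 300 s or 1200 s dissociation respectively. Protein was freshly captured per compound in the presence of 10 uM stabilizer compound, with running buffer of pH 7.5 HEPES/NaCl/glycerol/DTT plus 2% DMSO.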
# [3] = test system: TF1 JAK2 V617F STAT5 reporter; assay: Cellular TF1 STAT5 assay (luciferase reporter), JAK2 V617F; assay type: cell-based; conditions: Homo sapiens, TF-1, TF1 cells, JAK2 V617F, read-out: Cell PD TF1 V617F STAT5 (IC50)
# Outline: as §1
SMILES,IC50 [1],Kd [2],IC50 [3]
CNC(=O)c1nnc(NC(=O)C2CC2)cc1Nc1cccc(-c2cnn(C3CN(Cc4cccn(C(F)F)c4=O)C3)c2)c1OC [Compound 251],50 to 500 nM,0.01 to 10 nM,50 to 500 nM
CNC(=O)c1nnc(NC(=O)C2CC2)cc1Nc1cccc(-c2ccc(C(=O)N(C)Cc3cn(C)nc3C3CC3)nc2)c1OC [Compound 252],50 to 500 nM,0.01 to 10 nM,50 to 500 nM
CNC(=O)c1nnc(NC(=O)C2CC2)cc1Nc1cccc(-c2cnn(C3CN(Cc4nccc5cc[nH]c45)C3)c2)c1OC [Compound 254],50 to 500 nM,0.01 to 10 nM,50 to 500 nM
COc1c(Nc2cc(NC(=O)C3CC3)nn3cc(C)nc23)ccc(C)c1-c1ccc(C(=O)N(C)Cc2cc(C#N)ccn2)nc1 [Compound 256],500 to 5000 nM,0.01 to 10 nM,500 to 5000 nM
CNC(=O)c1nnc(NC(=O)C2CC2)cc1Nc1cccc(-c2cnn(C3CN(Cc4cccc(NC(C)=O)n4)C3)c2)c1OC [Compound 260],50 to 500 nM,0.01 to 10 nM,50 to 500 nM
COc1c(Nc2cc(NC(=O)C3CC3)nn3cc(C)nc23)ccc(C)c1-c1ccc(C(=O)N(C)Cc2cn(C)nc2C)nc1 [Compound 262],500 to 5000 nM,0.01 to 10 nM,5000 to 100000 nM
CNC(=O)c1nnc(NC(=O)C2CC2)cc1Nc1cccc(-c2ccc(C3CN(Cc4ccn(C)n4)C3)nc2)c1OC [Compound 263],5000 to 100000 nM,10 to 50 nM,5000 to 100000 nM
CNC(=O)c1nnc(NC(=O)C2CC2)cc1Nc1cccc(-c2ccc(C3CN(Cc4cnn(C)c4)C3)nc2)c1OC [Compound 264],5000 to 100000 nM,50 to 500 nM,5000 to 100000 nM
CNC(=O)c1nnc(NC(=O)C2CC2)cc1Nc1cccc(-c2ccc(C3CN(Cc4cccc(C#N)n4)C3)nc2)c1OC [Compound 266],500 to 5000 nM,0.01 to 10 nM,500 to 5000 nM
CNC(=O)c1nnc(NC(=O)C2CC2)cc1Nc1cccc(-c2cnn(C3CN(Cc4cccn(C)c4=O)C3)c2)c1OC [Compound 267],50 to 500 nM,0.01 to 10 nM,50 to 500 nM
CNC(=O)c1nnc(NC(=O)C2CC2)cc1Nc1ccc(C)c(-c2cn(C3CN(Cc4cccc(C#N)n4)C3)nn2)c1OC [Compound 268],500 to 5000 nM,0.01 to 10 nM,500 to 5000 nM
CNC(=O)c1nnc(NC(=O)C2CC2)cc1Nc1cccc(-c2ccc(C(=O)N(C)Cc3ncc(CN(C)C)s3)nc2)c1OC [Compound 271],500 to 5000 nM,0.01 to 10 nM,500 to 5000 nM
CNC(=O)c1nnc(NC(=O)C2CC2)cc1Nc1cccc(-c2cnn(C3CN(Cc4cccc(NS(C)(=O)=O)n4)C3)c2)c1OC [Compound 273],500 to 5000 nM,0.01 to 10 nM,500 to 5000 nM
CNC(=O)c1nnc(NC(=O)C2CC2)cc1Nc1cccc(-c2cnn(C3CN(Cc4cccc(C5(O)CC5)n4)C3)c2)c1OC [Compound 274],50 to 500 nM,0.01 to 10 nM,50 to 500 nM
CNC(=O)c1nnc(NC(=O)C2CC2)cc1Nc1cccc(-c2cnn(C3CN(Cc4cccc(C(=O)N(C)C)n4)C3)c2)c1OC [Compound 275],10 to 50 nM,0.01 to 10 nM,10 to 50 nM
CNC(=O)c1nnc(NC(=O)C2CC2)cc1Nc1cccc(-c2cnn(C3CN(Cc4cccc(C5CC5)n4)C3)c2)c1OC [Compound 276],50 to 500 nM,0.01 to 10 nM,50 to 500 nM
CNC(=O)c1nnc(NC(=O)C2CC2)cc1Nc1cccc(-c2cnn(C3CN(Cc4cccc(C(C)(C)C#N)n4)C3)c2)c1OC [Compound 277],50 to 500 nM,0.01 to 10 nM,50 to 500 nM
CNC(=O)c1nnc(NC(=O)C2CC2)cc1Nc1ccc(C)c(-c2ccc(C(=O)N(C)Cc3cn(C)nc3C)cn2)c1OC [Compound 278],500 to 5000 nM,0.01 to 10 nM,500 to 5000 nM
CNC(=O)c1nnc(NC(=O)C2CC2)cc1Nc1cccc(-c2ccc(C3CN(Cc4cc(C#N)ccn4)C3)nc2)c1OC [Compound 279],5000 to 100000 nM,10 to 50 nM,5000 to 100000 nM
CC#Cc1cccc(CN2CC(n3cc(-c4cccc(Nc5cc(NC(=O)C6CC6)nnc5C(=O)NC)c4OC)cn3)C2)n1 [Compound 281],50 to 500 nM,0.01 to 10 nM,50 to 500 nM
CNC(=O)c1nnc(NC(=O)C2CC2)cc1Nc1cccc(-c2ccc(C(=O)N(C)Cc3cnn(C4CC4)c3C)nc2)c1OC [Compound 284],500 to 5000 nM,0.01 to 10 nM,500 to 5000 nM
CNC(=O)c1nnc(NC(=O)C2CC2)cc1Nc1cccc(-c2cnn(C3CN(Cc4cccc5ccnn45)C3)c2)c1OC [Compound 287],50 to 500 nM,0.01 to 10 nM,50 to 500 nM
CNC(=O)c1nnc(NC(=O)C2CC2)cc1Nc1cccc(-c2ccc(C3CN(Cc4cccnc4C(F)F)C3)nc2)c1OC [Compound 288],5000 to 100000 nM,50 to 500 nM,5000 to 100000 nM

# Now from value to compound:
IC50 [1],Kd [2],IC50 [3],SMILES
5000 to 100000 nM,10 to 50 nM,500 to 5000 nM,CNC(=O)c1nnc(NC(=O)C2CC2)cc1Nc1cccc(-c2ccc(C(=O)N(C)Cc3nc(CN(C)C)cs3)nc2)c1OC [Compound 253]
50 to 500 nM,0.01 to 10 nM,50 to 500 nM,CNC(=O)c1nnc(NC(=O)C2CC2)cc1Nc1cccc(-c2cnn(C3CN(Cc4cccc(C#CCO)n4)C3)c2)c1OC [Compound 255]
50 to 500 nM,0.01 to 10 nM,50 to 500 nM,CNC(=O)c1nnc(NC(=O)C2CC2)cc1Nc1cccc(-c2ccc(C(=O)N(C)Cc3cn(C)nc3OC)nc2)c1OC [Compound 257]
50 to 500 nM,0.01 to 10 nM,50 to 500 nM,CNC(=O)c1nnc(NC(=O)C2CC2)cc1Nc1cccc(-c2cnn(C3CN(Cc4cccc(C5CCC5)n4)C3)c2)c1OC [Compound 258]
50 to 500 nM,0.01 to 10 nM,50 to 500 nM,CNC(=O)c1nnc(NC(=O)C2CC2)cc1Nc1cccc(-c2cnn(C3CN(Cc4cccc(C#CC(C)(C)O)n4)C3)c2)c1OC [Compound 259]
50 to 500 nM,0.01 to 10 nM,500 to 5000 nM,CNC(=O)c1nnc(NC(=O)C2CC2)cc1Nc1cccc(-c2ccc(C(=O)N(C)Cc3nccc(C#N)n3)nc2)c1OC [Compound 261]
500 to 5000 nM,0.01 to 10 nM,500 to 5000 nM,CNC(=O)c1nnc(NC(=O)C2CC2)cc1Nc1cccc(-c2cnn(C3CN(Cc4cccc(C#CCN)n4)C3)c2)c1OC [Compound 265]
500 to 5000 nM,0.01 to 10 nM,500 to 5000 nM,CNC(=O)c1nnc(NC(=O)C2CC2)cc1Nc1ccc(C)c(-c2cn(C3CN(Cc4cccc(C)n4)C3)nn2)c1OC [Compound 269]
500 to 5000 nM,0.01 to 10 nM,500 to 5000 nM,CNC(=O)c1nnc(NC(=O)C2CC2)cc1Nc1ccc(C#N)c(-c2ccc(C(=O)N(C)Cc3cc(C#N)ccn3)cc2)c1OC [Compound 272]
5000 to 100000 nM,10 to 50 nM,5000 to 100000 nM,CNC(=O)c1nnc(NC(=O)C2CC2)cc1Nc1cccc(-c2cncc(C3CN(Cc4ccccn4)C3)c2)c1OC [Compound 280]
500 to 5000 nM,0.01 to 10 nM,500 to 5000 nM,CNCc1cnc(CN(C)C(=O)c2ccc(-c3cccc(Nc4cc(NC(=O)C5CC5)nnc4C(=O)NC)c3OC)cn2)s1 [Compound 282]
500 to 5000 nM,0.01 to 10 nM,500 to 5000 nM,CNC(=O)c1nnc(NC(=O)C2CC2)cc1Nc1cccc(-c2ccc(C(=O)N(C)Cc3cn(C4CC4)nc3C)nc2)c1OC [Compound 285]
